Reference: PubChem BioAssay AID1918994 (Molecular Pharmacology Branch, DTP, NCI, 2023)

Test system: 292921-168-R-J2-PDC complex spheroid growth
Experiment: Anticancer human tumor 292921-168-R-J2-PDC patient-derived pancreatic carcinoma cell line growth inhibition [AhR]
Conditions: for IC50: curve of first compound; for viability, T/C: stronger effect = lower value
Summary of the method: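 Complex tumor spheroids co-cultured with HUVEC and human MSC stroma; AhR antagonists tested in combination with standard-of-care and investigational agents. Top concentration at or near clinical Cmax (else 10 microM), half-log dilutions; growth expressed as percent test/control.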

[1] = second compound 0.1 µM, first compound 0.0316 µM
[2] = second compound 0.1 µM, first compound 0.1 µM
[3] = second compound 0.1 µM, first compound 0.316 µM
[4] = second compound 0.1 µM, first compound 1 µM
[5] = second compound 0.1 µM, first compound 3.16 µM
[6] = second compound 0.1 µM, first compound 10 µM
[7] = second compound 0.316 µM, first compound 0.0316 µM
[8] = second compound 0.316 µM, first compound 0.1 µM
[9] = second compound 0.316 µM, first compound 0.316 µM
[10] = second compound 0.316 µM, first compound 1 µM
[11] = second compound 0.316 µM, first compound 3.16 µM
[12] = second compound 0.316 µM, first compound 10 µM
[13] = second compound 1 µM, first compound 0.0316 µM
[14] = second compound 1 µM, first compound 0.1 µM
[15] = second compound 1 µM, first compound 0.316 µM
[16] = second compound 1 µM, first compound 1 µM
[17] = second compound 1 µM, first compound 3.16 µM
[18] = second compound 1 µM, first compound 10 µM
[19] = second compound 3.16 µM, first compound 0.0316 µM
[20] = second compound 3.16 µM, first compound 0.1 µM
[21] = second compound 3.16 µM, first compound 0.316 µM
[22] = second compound 3.16 µM, first compound 1 µM
[23] = second compound 3.16 µM, first compound 3.16 µM
[24] = second compound 3.16 µM, first compound 10 µM
[25] = second compound 10 µM, first compound 0.0316 µM
[26] = second compound 10 µM, first compound 0.1 µM
[27] = second compound 10 µM, first compound 0.316 µM
[28] = second compound 10 µM, first compound 1 µM
[29] = second compound 10 µM, first compound 3.16 µM
[30] = second compound 10 µM, first compound 10 µM
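Further: spheroids exposed to compounds for seven days after three days of growth.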

CC(C)c1c(-c2ccccc2)nc2c(C#N)c[nH]n2c1=O + Cc1ccccc1N=Nc1ccc(NC(=O)c2ccnn2C)c(C)c1
IC50 (second compound 0.1 µM): > 10000 nM
IC50 (second compound 0.316 µM): > 10000 nM
IC50 (second compound 1 µM): > 10000 nM
IC50 (second compound 3.16 µM): > 10000 nM
IC50 (second compound 10 µM): > 10000 nM
viability, T/C [1]: 86.5%
viability, T/C [2]: 86%
viability, T/C [3]: 91.9%
viability, T/C [4]: 88.7%
viability, T/C [5]: 89.8%
viability, T/C [6]: 96.5%
viability, T/C [7]: 79.3%
viability, T/C [8]: 85.2%
viability, T/C [9]: 86.1%
viability, T/C [10]: 81.2%
viability, T/C [11]: 94%
viability, T/C [12]: 85.9%
viability, T/C [13]: 84.2%
viability, T/C [14]: 86.2%
viability, T/C [15]: 80.8%
viability, T/C [16]: 87%
viability, T/C [17]: 83.6%
viability, T/C [18]: 81.8%
viability, T/C [19]: 78.6%
viability, T/C [20]: 72.3%
viability, T/C [21]: 78.8%
viability, T/C [22]: 76.8%
viability, T/C [23]: 74%
viability, T/C [24]: 65.8%
viability, T/C [25]: 58.1%
viability, T/C [26]: 61.2%
viability, T/C [27]: 58.6%
viability, T/C [28]: 63.9%
viability, T/C [29]: 65%
viability, T/C [30]: 50.3%

CC1COCCN1c1cc(-c2ccnn2C)c2ccnc(-c3ccn[nH]3)c2n1 (stereo not given) + Cc1ccccc1N=Nc1ccc(NC(=O)c2ccnn2C)c(C)c1
IC50 (second compound 0.1 µM): 38.5 nM
IC50 (second compound 0.316 µM): 43.9 nM
IC50 (second compound 1 µM): 33.1 nM
IC50 (second compound 3.16 µM): 20 nM
IC50 (second compound 10 µM): 13.2 nM
viability, T/C (second compound 0.1 µM, first compound 0.00316 µM): 95.7%
viability, T/C (second compound 0.1 µM, first compound 0.01 µM): 86.6%
viability, T/C [1]: 54.5%
viability, T/C [2]: 26.6%
viability, T/C [3]: 18.5%
viability, T/C [4]: 15.5%
viability, T/C (second compound 0.316 µM, first compound 0.00316 µM): 90.8%
viability, T/C (second compound 0.316 µM, first compound 0.01 µM): 81.6%
viability, T/C [7]: 58.9%
viability, T/C [8]: 28.8%
viability, T/C [9]: 18%
viability, T/C [10]: 16.2%
viability, T/C (second compound 1 µM, first compound 0.00316 µM): 83.4%
viability, T/C (second compound 1 µM, first compound 0.01 µM): 74.3%
viability, T/C [13]: 51.8%
viability, T/C [14]: 25%
viability, T/C [15]: 19.3%
viability, T/C [16]: 15.7%
viability, T/C (second compound 3.16 µM, first compound 0.00316 µM): 79.2%
viability, T/C (second compound 3.16 µM, first compound 0.01 µM): 68.1%
viability, T/C [19]: 37.3%
viability, T/C [20]: 23.2%
viability, T/C [21]: 16.7%
viability, T/C [22]: 13.8%
viability, T/C (second compound 10 µM, first compound 0.00316 µM): 57.8%
viability, T/C (second compound 10 µM, first compound 0.01 µM): 57%
viability, T/C [25]: 29.8%
viability, T/C [26]: 25.1%
viability, T/C [27]: 19.2%
viability, T/C [28]: 15.8%

CC1COCCN1c1cc(C2(S(C)(=N)=O)CC2)nc(-c2ccnc3[nH]ccc23)n1 (stereo not given) + Cc1ccccc1N=Nc1ccc(NC(=O)c2ccnn2C)c(C)c1
IC50 (second compound 0.1 µM): 2760 nM
IC50 (second compound 0.316 µM): 2520 nM
IC50 (second compound 1 µM): 2080 nM
IC50 (second compound 3.16 µM): 1810 nM
IC50 (second compound 10 µM): 1480 nM
viability, T/C [1]: 89.7%
viability, T/C [2]: 96%
viability, T/C [3]: 93.9%
viability, T/C [4]: 83.1%
viability, T/C [5]: 45.6%
viability, T/C [6]: 21%
viability, T/C [7]: 98.8%
viability, T/C [8]: 84.3%
viability, T/C [9]: 88.3%
viability, T/C [10]: 79.5%
viability, T/C [11]: 42.6%
viability, T/C [12]: 24.4%
viability, T/C [13]: 86.4%
viability, T/C [14]: 83.7%
viability, T/C [15]: 85.4%
viability, T/C [16]: 69.8%
viability, T/C [17]: 38.6%
viability, T/C [18]: 19.2%
viability, T/C [19]: 80%
viability, T/C [20]: 78.8%
viability, T/C [21]: 68%
viability, T/C [22]: 65.6%
viability, T/C [23]: 37.4%
viability, T/C [24]: 16.7%
viability, T/C [25]: 66.9%
viability, T/C [26]: 55.7%
viability, T/C [27]: 58.2%
viability, T/C [28]: 58.3%
viability, T/C [29]: 34.3%
viability, T/C [30]: 21.5%

COc1ccc([C@@H](O)c2cc(-c3ncnc4cc(N5CCOCC5)ccc34)c(F)cc2Cl)nn1 + Cc1ccccc1N=Nc1ccc(NC(=O)c2ccnn2C)c(C)c1
IC50 (second compound 0.1 µM): 1950 nM
IC50 (second compound 0.316 µM): 1930 nM
IC50 (second compound 1 µM): 1650 nM
IC50 (second compound 3.16 µM): 1320 nM
IC50 (second compound 10 µM): 529 nM
viability, T/C [1]: 89.1%
viability, T/C [2]: 81.5%
viability, T/C [3]: 81%
viability, T/C [4]: 56.2%
viability, T/C [5]: 44.9%
viability, T/C [6]: 27%
viability, T/C [7]: 90%
viability, T/C [8]: 80.9%
viability, T/C [9]: 79.2%
viability, T/C [10]: 59.7%
viability, T/C [11]: 42.1%
viability, T/C [12]: 24%
viability, T/C [13]: 76.5%
viability, T/C [14]: 81.6%
viability, T/C [15]: 71.6%
viability, T/C [16]: 55.8%
viability, T/C [17]: 41%
viability, T/C [18]: 22.4%
viability, T/C [19]: 70.7%
viability, T/C [20]: 68%
viability, T/C [21]: 66.6%
viability, T/C [22]: 52%
viability, T/C [23]: 38.5%
viability, T/C [24]: 21%
viability, T/C [25]: 57.4%
viability, T/C [26]: 54.6%
viability, T/C [27]: 53.7%
viability, T/C [28]: 46.8%
viability, T/C [29]: 34.9%
viability, T/C [30]: 20.4%

O=C(C=Cn1cnc(-c2cc(C(F)(F)F)cc(C(F)(F)F)c2)n1)NNc1cnccn1 + Cc1ccccc1N=Nc1ccc(NC(=O)c2ccnn2C)c(C)c1
IC50 (second compound 0.1 µM): 194 nM
IC50 (second compound 0.316 µM): 126 nM
IC50 (second compound 1 µM): 115 nM
IC50 (second compound 3.16 µM): 76.4 nM
IC50 (second compound 10 µM): 29.1 nM
viability, T/C (second compound 0.1 µM, first compound 0.00949 µM): 88.1%
viability, T/C (second compound 0.1 µM, first compound 0.03 µM): 84.6%
viability, T/C (second compound 0.1 µM, first compound 0.0949 µM): 75.5%
viability, T/C (second compound 0.1 µM, first compound 0.3 µM): 34.5%
viability, T/C (second compound 0.1 µM, first compound 0.949 µM): 16%
viability, T/C (second compound 0.1 µM, first compound 3 µM): 12%
viability, T/C (second compound 0.316 µM, first compound 0.00949 µM): 95.8%
viability, T/C (second compound 0.316 µM, first compound 0.03 µM): 77.9%
viability, T/C (second compound 0.316 µM, first compound 0.0949 µM): 58.1%
viability, T/C (second compound 0.316 µM, first compound 0.3 µM): 31%
viability, T/C (second compound 0.316 µM, first compound 0.949 µM): 14.9%
viability, T/C (second compound 0.316 µM, first compound 3 µM): 9.51%
viability, T/C (second compound 1 µM, first compound 0.00949 µM): 78.1%
viability, T/C (second compound 1 µM, first compound 0.03 µM): 61.8%
viability, T/C (second compound 1 µM, first compound 0.0949 µM): 57.9%
viability, T/C (second compound 1 µM, first compound 0.3 µM): 30.6%
viability, T/C (second compound 1 µM, first compound 0.949 µM): 13%
viability, T/C (second compound 1 µM, first compound 3 µM): 9.8%
viability, T/C (second compound 3.16 µM, first compound 0.00949 µM): 79.2%
viability, T/C (second compound 3.16 µM, first compound 0.03 µM): 64%
viability, T/C (second compound 3.16 µM, first compound 0.0949 µM): 48.2%
viability, T/C (second compound 3.16 µM, first compound 0.3 µM): 26.4%
viability, T/C (second compound 3.16 µM, first compound 0.949 µM): 15.2%
viability, T/C (second compound 3.16 µM, first compound 3 µM): 8.58%
viability, T/C (second compound 10 µM, first compound 0.00949 µM): 59.8%
viability, T/C (second compound 10 µM, first compound 0.03 µM): 50.8%
viability, T/C (second compound 10 µM, first compound 0.0949 µM): 37.1%
viability, T/C (second compound 10 µM, first compound 0.3 µM): 29.1%
viability, T/C (second compound 10 µM, first compound 0.949 µM): 18%
viability, T/C (second compound 10 µM, first compound 3 µM): 9.82%
